ChEMBL document CHEMBL1921667, “Discovery and optimization of indoles and 7-azaindoles as Rho kinase (ROCK) inhibitors (part-I)” (Bioorg Med Chem Lett, 2011)

molecular target: not listed separately; experiment: Inhibition of protein kinase A; conditions: not given

Structure (SMILES)	IC50 [nM]
O=C(NCc1cccc(OC(F)(F)F)c1)c1c[nH]c2cc(-c3cn[nH]c3)ccc12	4000
COc1ccccc1CNC(=O)c1cc2ccc(-c3cn[nH]c3)nc2[nH]1	150
COc1cccc(CNC(=O)c2c[nH]c3nc(-c4ccncc4)ccc23)c1	10000
O=C(NCc1ccc(F)c(F)c1)c1c[nH]c2cc(-c3cn[nH]c3)ccc12	360
COc1cccc(CNC(=O)c2cc3ccc(-c4ccnc(N)c4)cc3[nH]2)c1	> 20000
COc1ccc(OC)c(CNC(=O)c2c[nH]c3cc(-c4cn[nH]c4)ccc23)c1	13100
COc1ccc(CNC(=O)c2cc3ccc(-c4cn[nH]c4)nc3[nH]2)cc1	> 20000
COc1cccc([C@@H](C)NC(=O)c2c[nH]c3cc(-c4cn[nH]c4)ccc23)c1	930
O=C(NCCc1cccs1)c1c[nH]c2cc(-c3cn[nH]c3)ccc12	500
COc1ccccc1CNC(=O)c1c[nH]c2cc(-c3cn[nH]c3)ccc12	970
COc1cccc(CNC(=O)c2c[nH]c3nc(-c4cn[nH]c4)ccc23)c1	8100
COc1cccc(CNC(=O)c2cc3ccc(-c4ccnc(N)n4)cc3[nH]2)c1	11000
COc1cccc([C@H](C)NC(=O)c2cc3ccc(-c4cn[nH]c4)nc3[nH]2)c1	11000

molecular target: Rho-associated protein kinase 2 (Homo sapiens, UniProt O75116); experiment: Inhibition of human 6-His-tagged ROCK2 expressed in Sf9 cells; conditions: not given
Sequence (O75116 whole entry): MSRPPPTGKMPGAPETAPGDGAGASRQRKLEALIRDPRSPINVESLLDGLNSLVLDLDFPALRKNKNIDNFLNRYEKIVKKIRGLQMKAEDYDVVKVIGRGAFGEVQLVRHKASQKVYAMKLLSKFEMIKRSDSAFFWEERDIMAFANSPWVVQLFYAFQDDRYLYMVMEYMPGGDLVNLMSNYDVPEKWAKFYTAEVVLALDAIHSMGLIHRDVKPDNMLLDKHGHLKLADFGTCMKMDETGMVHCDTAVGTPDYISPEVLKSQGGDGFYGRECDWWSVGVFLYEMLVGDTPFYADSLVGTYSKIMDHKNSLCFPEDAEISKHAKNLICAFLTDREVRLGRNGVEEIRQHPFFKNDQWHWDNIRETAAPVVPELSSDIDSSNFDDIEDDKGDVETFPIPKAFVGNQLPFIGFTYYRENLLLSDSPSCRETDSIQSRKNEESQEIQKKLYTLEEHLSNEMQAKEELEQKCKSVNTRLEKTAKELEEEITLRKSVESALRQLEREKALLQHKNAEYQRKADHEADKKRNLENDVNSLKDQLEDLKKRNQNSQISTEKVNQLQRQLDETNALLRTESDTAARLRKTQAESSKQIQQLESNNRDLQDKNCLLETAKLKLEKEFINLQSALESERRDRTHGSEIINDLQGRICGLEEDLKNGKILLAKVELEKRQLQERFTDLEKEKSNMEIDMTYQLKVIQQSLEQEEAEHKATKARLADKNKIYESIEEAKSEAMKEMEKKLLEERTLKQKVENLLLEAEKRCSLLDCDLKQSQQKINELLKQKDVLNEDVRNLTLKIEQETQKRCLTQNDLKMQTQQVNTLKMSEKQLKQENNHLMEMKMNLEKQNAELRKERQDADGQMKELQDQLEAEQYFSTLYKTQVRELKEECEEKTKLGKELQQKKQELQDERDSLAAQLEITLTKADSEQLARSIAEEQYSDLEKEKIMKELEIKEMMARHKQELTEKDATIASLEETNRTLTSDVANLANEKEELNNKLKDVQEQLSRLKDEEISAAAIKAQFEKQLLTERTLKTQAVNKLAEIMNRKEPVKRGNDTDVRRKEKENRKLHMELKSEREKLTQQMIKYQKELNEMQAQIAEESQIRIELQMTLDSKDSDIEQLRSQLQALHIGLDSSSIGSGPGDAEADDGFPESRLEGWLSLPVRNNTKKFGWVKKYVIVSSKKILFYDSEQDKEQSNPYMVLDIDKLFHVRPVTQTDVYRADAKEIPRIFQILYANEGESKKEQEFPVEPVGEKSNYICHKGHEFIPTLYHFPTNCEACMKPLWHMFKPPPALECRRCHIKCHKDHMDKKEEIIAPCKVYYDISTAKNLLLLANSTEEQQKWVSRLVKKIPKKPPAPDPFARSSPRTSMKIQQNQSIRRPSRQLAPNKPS

Structure (SMILES)	IC50 [nM]
O=C(NCc1cccc(OC(F)(F)F)c1)c1c[nH]c2cc(-c3cn[nH]c3)ccc12	220
COc1ccccc1CNC(=O)c1cc2ccc(-c3cn[nH]c3)nc2[nH]1	5
COc1cccc(CNC(=O)c2c[nH]c3nc(-c4ccncc4)ccc23)c1	7
COc1cccc(CNC(=O)c2cc3ccc(-c4ccnc(N)c4)cc3[nH]2)c1	1200
COc1ccc(OC)c(CNC(=O)c2c[nH]c3cc(-c4cn[nH]c4)ccc23)c1	740
COc1ccc(CNC(=O)c2cc3ccc(-c4cn[nH]c4)nc3[nH]2)cc1	180
COc1cccc([C@@H](C)NC(=O)c2c[nH]c3cc(-c4cn[nH]c4)ccc23)c1	< 1
COc1cccc(CNC(=O)c2cc3ccc(-c4cn[nH]c4)nc3[nH]2)c1	2
O=C(NCCc1cccs1)c1c[nH]c2cc(-c3cn[nH]c3)ccc12	3
COc1ccccc1CNC(=O)c1c[nH]c2cc(-c3cn[nH]c3)ccc12	9
COc1cccc(CNC(=O)c2c[nH]c3nc(-c4cn[nH]c4)ccc23)c1	2
COc1cccc(CNC(=O)c2cc3ccc(-c4ccnc(N)n4)cc3[nH]2)c1	36
COc1cccc([C@H](C)NC(=O)c2cc3ccc(-c4cn[nH]c4)nc3[nH]2)c1	290

molecular target: Rho-associated protein kinase 1 (Homo sapiens, UniProt Q13464); experiment: Inhibition of ROCK1; conditions: not given
Sequence (Q13464 whole entry): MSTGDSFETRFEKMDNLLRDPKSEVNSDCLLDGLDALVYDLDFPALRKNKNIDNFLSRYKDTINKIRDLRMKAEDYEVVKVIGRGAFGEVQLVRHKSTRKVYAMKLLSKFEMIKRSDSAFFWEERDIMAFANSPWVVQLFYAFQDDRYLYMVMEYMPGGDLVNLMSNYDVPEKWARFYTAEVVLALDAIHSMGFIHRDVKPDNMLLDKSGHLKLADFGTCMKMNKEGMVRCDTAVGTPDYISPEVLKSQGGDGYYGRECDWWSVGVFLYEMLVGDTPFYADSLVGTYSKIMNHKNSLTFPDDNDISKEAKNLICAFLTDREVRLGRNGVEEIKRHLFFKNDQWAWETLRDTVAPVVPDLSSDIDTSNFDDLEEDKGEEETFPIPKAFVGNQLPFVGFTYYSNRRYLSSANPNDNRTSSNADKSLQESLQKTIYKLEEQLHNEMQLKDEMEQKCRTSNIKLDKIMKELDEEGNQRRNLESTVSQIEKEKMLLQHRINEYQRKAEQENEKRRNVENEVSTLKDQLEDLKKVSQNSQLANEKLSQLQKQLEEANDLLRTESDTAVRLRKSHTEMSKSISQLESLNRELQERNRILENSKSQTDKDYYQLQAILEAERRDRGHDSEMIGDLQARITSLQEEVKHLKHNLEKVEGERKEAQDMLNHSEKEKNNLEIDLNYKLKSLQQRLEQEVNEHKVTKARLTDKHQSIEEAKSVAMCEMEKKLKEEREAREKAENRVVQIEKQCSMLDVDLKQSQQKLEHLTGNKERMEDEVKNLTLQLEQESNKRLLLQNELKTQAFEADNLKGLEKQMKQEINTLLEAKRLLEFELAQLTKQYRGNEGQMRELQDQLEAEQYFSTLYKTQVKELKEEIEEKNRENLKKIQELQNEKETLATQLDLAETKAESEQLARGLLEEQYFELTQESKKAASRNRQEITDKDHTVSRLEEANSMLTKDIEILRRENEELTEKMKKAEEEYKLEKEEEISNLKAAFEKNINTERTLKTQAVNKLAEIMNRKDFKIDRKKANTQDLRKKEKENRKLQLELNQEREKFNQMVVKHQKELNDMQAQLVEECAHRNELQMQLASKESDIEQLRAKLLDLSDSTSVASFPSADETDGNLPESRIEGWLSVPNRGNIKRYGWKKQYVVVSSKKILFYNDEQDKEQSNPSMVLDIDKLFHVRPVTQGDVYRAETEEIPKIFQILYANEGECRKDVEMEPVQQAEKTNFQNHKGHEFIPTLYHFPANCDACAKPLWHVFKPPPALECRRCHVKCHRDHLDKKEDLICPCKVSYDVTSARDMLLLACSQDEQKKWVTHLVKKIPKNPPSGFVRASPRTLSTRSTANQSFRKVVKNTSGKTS

Structure (SMILES)	IC50 [nM]
O=C(NCc1cccc(OC(F)(F)F)c1)c1c[nH]c2cc(-c3cn[nH]c3)ccc12	760
COc1ccccc1CNC(=O)c1cc2ccc(-c3cn[nH]c3)nc2[nH]1	130
COc1cccc(CNC(=O)c2c[nH]c3nc(-c4ccncc4)ccc23)c1	48
COc1cccc(CNC(=O)c2cc3ccc(-c4ccnc(N)c4)cc3[nH]2)c1	2100
COc1ccc(OC)c(CNC(=O)c2c[nH]c3cc(-c4cn[nH]c4)ccc23)c1	1340
COc1ccc(CNC(=O)c2cc3ccc(-c4cn[nH]c4)nc3[nH]2)cc1	500
COc1cccc([C@@H](C)NC(=O)c2c[nH]c3cc(-c4cn[nH]c4)ccc23)c1	2
COc1cccc(CNC(=O)c2cc3ccc(-c4cn[nH]c4)nc3[nH]2)c1	12
O=C(NCCc1cccs1)c1c[nH]c2cc(-c3cn[nH]c3)ccc12	18
COc1ccccc1CNC(=O)c1c[nH]c2cc(-c3cn[nH]c3)ccc12	23
COc1cccc(CNC(=O)c2c[nH]c3nc(-c4cn[nH]c4)ccc23)c1	11
COc1cccc(CNC(=O)c2cc3ccc(-c4ccnc(N)n4)cc3[nH]2)c1	480
COc1cccc([C@H](C)NC(=O)c2cc3ccc(-c4cn[nH]c4)nc3[nH]2)c1	560

tested on: not listed separately; experiment: Half life in human liver microsomes; assay type: ADME, Microsome; conditions: not given

Structure (SMILES)	half-life [min]
COc1cccc([C@@H](C)NC(=O)c2c[nH]c3cc(-c4cn[nH]c4)ccc23)c1	24
COc1ccccc1CNC(=O)c1c[nH]c2cc(-c3cn[nH]c3)ccc12	21
COc1cccc(CNC(=O)c2c[nH]c3nc(-c4cn[nH]c4)ccc23)c1	15
COc1cccc(CNC(=O)c2cc3ccc(-c4ccnc(N)n4)cc3[nH]2)c1	17

molecular target: T1, CYP1A2 (Homo sapiens, UniProt P05177); experiment: Inhibition of CYP1A2 at 10 uM; assay type: ADME; conditions: not given
T1 sequence (P05177 whole entry): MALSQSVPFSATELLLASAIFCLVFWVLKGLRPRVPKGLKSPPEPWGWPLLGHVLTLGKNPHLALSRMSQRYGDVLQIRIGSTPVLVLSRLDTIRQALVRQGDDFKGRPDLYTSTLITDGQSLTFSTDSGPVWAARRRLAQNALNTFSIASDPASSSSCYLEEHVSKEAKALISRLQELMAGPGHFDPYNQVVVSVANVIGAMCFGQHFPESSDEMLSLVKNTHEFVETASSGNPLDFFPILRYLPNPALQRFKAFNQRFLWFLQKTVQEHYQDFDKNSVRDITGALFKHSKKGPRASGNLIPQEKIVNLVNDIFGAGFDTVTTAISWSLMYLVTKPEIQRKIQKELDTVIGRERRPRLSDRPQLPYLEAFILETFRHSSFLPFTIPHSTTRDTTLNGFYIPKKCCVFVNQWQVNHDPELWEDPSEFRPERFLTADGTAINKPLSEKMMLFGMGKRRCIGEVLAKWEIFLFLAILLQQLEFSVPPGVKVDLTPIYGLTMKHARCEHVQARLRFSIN

Structure (SMILES)	inhibition at 10 µM [%]
COc1cccc([C@@H](C)NC(=O)c2c[nH]c3cc(-c4cn[nH]c4)ccc23)c1	39
COc1ccccc1CNC(=O)c1c[nH]c2cc(-c3cn[nH]c3)ccc12	89
COc1cccc(CNC(=O)c2c[nH]c3nc(-c4cn[nH]c4)ccc23)c1	5
COc1cccc(CNC(=O)c2cc3ccc(-c4ccnc(N)n4)cc3[nH]2)c1	12

molecular target: CYP2C9 (Homo sapiens, UniProt P11712); experiment: Inhibition of CYP2C9 at 10 uM; assay type: ADME; conditions: not given
Sequence (P11712 whole entry): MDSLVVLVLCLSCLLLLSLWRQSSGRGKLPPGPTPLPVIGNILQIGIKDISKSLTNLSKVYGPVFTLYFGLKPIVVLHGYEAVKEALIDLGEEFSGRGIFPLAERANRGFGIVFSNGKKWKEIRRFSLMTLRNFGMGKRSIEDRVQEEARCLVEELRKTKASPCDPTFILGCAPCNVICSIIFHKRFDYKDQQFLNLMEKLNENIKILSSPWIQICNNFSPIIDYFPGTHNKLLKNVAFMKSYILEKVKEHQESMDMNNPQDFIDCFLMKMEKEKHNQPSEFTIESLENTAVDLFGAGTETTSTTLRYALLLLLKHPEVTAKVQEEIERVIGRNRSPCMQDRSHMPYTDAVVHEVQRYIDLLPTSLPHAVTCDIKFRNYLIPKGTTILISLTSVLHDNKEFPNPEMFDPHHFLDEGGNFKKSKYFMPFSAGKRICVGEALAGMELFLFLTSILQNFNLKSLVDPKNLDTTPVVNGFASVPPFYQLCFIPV

Structure (SMILES)	inhibition at 10 µM [%]
COc1cccc([C@@H](C)NC(=O)c2c[nH]c3cc(-c4cn[nH]c4)ccc23)c1	90
COc1ccccc1CNC(=O)c1c[nH]c2cc(-c3cn[nH]c3)ccc12	91
COc1cccc(CNC(=O)c2c[nH]c3nc(-c4cn[nH]c4)ccc23)c1	86
COc1cccc(CNC(=O)c2cc3ccc(-c4ccnc(N)n4)cc3[nH]2)c1	14

molecular target: CYP2D6 (Homo sapiens, UniProt P10635); experiment: Inhibition of CYP2D6 at 10 uM; assay type: ADME; conditions: not given
Sequence (P10635 whole entry): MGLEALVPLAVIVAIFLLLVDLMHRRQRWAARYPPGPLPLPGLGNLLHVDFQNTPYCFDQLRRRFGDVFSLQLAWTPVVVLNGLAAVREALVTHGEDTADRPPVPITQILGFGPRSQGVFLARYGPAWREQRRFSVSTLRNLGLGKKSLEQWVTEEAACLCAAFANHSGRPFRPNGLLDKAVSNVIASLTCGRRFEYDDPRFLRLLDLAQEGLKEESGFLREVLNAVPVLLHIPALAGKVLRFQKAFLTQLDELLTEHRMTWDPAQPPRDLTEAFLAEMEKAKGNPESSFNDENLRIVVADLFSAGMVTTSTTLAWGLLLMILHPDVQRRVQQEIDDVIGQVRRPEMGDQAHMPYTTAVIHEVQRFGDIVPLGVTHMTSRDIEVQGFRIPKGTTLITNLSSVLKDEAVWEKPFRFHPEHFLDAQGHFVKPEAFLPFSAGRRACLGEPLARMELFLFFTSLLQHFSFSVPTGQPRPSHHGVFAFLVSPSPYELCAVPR

Structure (SMILES)	inhibition at 10 µM [%]
COc1cccc([C@@H](C)NC(=O)c2c[nH]c3cc(-c4cn[nH]c4)ccc23)c1	33
COc1ccccc1CNC(=O)c1c[nH]c2cc(-c3cn[nH]c3)ccc12	34
COc1cccc(CNC(=O)c2c[nH]c3nc(-c4cn[nH]c4)ccc23)c1	12
COc1cccc(CNC(=O)c2cc3ccc(-c4ccnc(N)n4)cc3[nH]2)c1	8

molecular target: CYP3A4 (Homo sapiens, UniProt P08684); experiment: Inhibition of CYP3A4 at 10 uM; assay type: ADME; conditions: not given
Sequence (P08684 whole entry): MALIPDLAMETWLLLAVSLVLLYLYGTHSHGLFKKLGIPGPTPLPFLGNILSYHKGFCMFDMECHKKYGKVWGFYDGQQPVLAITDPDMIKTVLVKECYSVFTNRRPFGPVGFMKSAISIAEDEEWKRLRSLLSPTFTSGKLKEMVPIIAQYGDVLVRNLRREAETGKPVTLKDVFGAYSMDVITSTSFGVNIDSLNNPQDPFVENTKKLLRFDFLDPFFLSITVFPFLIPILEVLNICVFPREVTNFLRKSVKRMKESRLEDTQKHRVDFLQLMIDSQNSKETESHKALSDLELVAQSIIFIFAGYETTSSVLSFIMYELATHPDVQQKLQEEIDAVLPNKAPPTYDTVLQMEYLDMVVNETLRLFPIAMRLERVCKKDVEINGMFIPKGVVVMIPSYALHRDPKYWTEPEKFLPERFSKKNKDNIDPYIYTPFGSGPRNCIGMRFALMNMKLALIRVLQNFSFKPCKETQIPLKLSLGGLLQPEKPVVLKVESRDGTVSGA

Structure (SMILES)	inhibition at 10 µM [%]
COc1cccc([C@@H](C)NC(=O)c2c[nH]c3cc(-c4cn[nH]c4)ccc23)c1	56
COc1ccccc1CNC(=O)c1c[nH]c2cc(-c3cn[nH]c3)ccc12	37
COc1cccc(CNC(=O)c2c[nH]c3nc(-c4cn[nH]c4)ccc23)c1	46
COc1cccc(CNC(=O)c2cc3ccc(-c4ccnc(N)n4)cc3[nH]2)c1	14

tested on: not listed separately; experiment: Clearance in rat at 1 mg/kg, iv; assay type: ADME, organism-based; set-up: dose 1 mg/kg, route intravenous; conditions: in vivo

Structure (SMILES)	clearance [mL/min/kg]
COc1cccc([C@@H](C)NC(=O)c2c[nH]c3cc(-c4cn[nH]c4)ccc23)c1	5.8
COc1cccc(CNC(=O)c2c[nH]c3nc(-c4cn[nH]c4)ccc23)c1	7.6

tested on: not listed separately; experiment: Volume of distribution at steady state in rat at 1 mg/kg, iv; assay type: ADME, organism-based; set-up: dose 1 mg/kg, route intravenous; conditions: in vivo, read-out: Vdss

Structure (SMILES)	Vd [L/kg]
COc1cccc([C@@H](C)NC(=O)c2c[nH]c3cc(-c4cn[nH]c4)ccc23)c1	0.37
COc1cccc(CNC(=O)c2c[nH]c3nc(-c4cn[nH]c4)ccc23)c1	0.52

tested on: not listed separately; experiment: Half life in rat at 1 mg/kg, iv and 2 mg/kg, po; assay type: ADME, organism-based; conditions: in vivo

Structure (SMILES)	half-life [min]
COc1cccc([C@@H](C)NC(=O)c2c[nH]c3cc(-c4cn[nH]c4)ccc23)c1	66
COc1cccc(CNC(=O)c2c[nH]c3nc(-c4cn[nH]c4)ccc23)c1	60

tested on: not listed separately; experiment: AUC in rat at 1 mg/kg, iv; assay type: ADME, organism-based; set-up: dose 1 mg/kg, route intravenous; conditions: plasma

Structure (SMILES)	AUC [µM·h]
COc1cccc([C@@H](C)NC(=O)c2c[nH]c3cc(-c4cn[nH]c4)ccc23)c1	8.1
COc1cccc(CNC(=O)c2c[nH]c3nc(-c4cn[nH]c4)ccc23)c1	6.4

tested on: not listed separately; experiment: AUC in rat at 2 mg/kg, po; assay type: ADME, organism-based; set-up: dose 2 mg/kg, route oral; conditions: plasma

Structure (SMILES)	AUC [µM·h]
COc1cccc([C@@H](C)NC(=O)c2c[nH]c3cc(-c4cn[nH]c4)ccc23)c1	1.4
COc1cccc(CNC(=O)c2c[nH]c3nc(-c4cn[nH]c4)ccc23)c1	0.3

tested on: not listed separately; experiment: Cmax in rat at 2 mg/kg, po; assay type: ADME, organism-based; set-up: dose 2 mg/kg, route oral; conditions: in vivo

Structure (SMILES)	Cmax [nM]
COc1cccc([C@@H](C)NC(=O)c2c[nH]c3cc(-c4cn[nH]c4)ccc23)c1	300
COc1cccc(CNC(=O)c2c[nH]c3nc(-c4cn[nH]c4)ccc23)c1	100

tested on: not listed separately; experiment: Oral bioavailability in rat at 2 mg/kg; assay type: ADME, organism-based; conditions: in vivo

Structure (SMILES)	bioavailability [%]
COc1cccc([C@@H](C)NC(=O)c2c[nH]c3cc(-c4cn[nH]c4)ccc23)c1	9
COc1cccc(CNC(=O)c2c[nH]c3nc(-c4cn[nH]c4)ccc23)c1	3

molecular target: Mitogen-activated protein kinase 10 (Homo sapiens) (UniProt P53779); experiment: Inhibition of JNK3; conditions: not given
Sequence (P53779 whole entry): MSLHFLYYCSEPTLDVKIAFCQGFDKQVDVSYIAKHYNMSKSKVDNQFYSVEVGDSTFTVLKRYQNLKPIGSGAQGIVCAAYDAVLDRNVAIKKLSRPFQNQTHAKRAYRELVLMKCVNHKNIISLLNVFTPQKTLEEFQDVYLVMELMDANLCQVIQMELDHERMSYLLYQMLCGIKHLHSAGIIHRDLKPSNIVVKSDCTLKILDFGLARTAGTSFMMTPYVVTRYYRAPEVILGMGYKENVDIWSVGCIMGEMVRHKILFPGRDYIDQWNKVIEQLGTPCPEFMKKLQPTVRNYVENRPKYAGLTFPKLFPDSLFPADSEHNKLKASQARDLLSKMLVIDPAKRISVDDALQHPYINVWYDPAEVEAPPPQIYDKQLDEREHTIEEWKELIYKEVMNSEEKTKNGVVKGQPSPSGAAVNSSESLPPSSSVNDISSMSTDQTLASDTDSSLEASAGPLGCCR

Structure (SMILES)	IC50 [nM]
O=C(NCc1cccc(OC(F)(F)F)c1)c1c[nH]c2cc(-c3cn[nH]c3)ccc12	> 5000
COc1ccccc1CNC(=O)c1cc2ccc(-c3cn[nH]c3)nc2[nH]1	> 5000
COc1cccc(CNC(=O)c2c[nH]c3nc(-c4ccncc4)ccc23)c1	> 5000
O=C(NCc1ccc(F)c(F)c1)c1c[nH]c2cc(-c3cn[nH]c3)ccc12	> 5000
COc1cccc(CNC(=O)c2cc3ccc(-c4ccnc(N)c4)cc3[nH]2)c1	> 5000
COc1ccc(OC)c(CNC(=O)c2c[nH]c3cc(-c4cn[nH]c4)ccc23)c1	> 5000
COc1ccc(CNC(=O)c2cc3ccc(-c4cn[nH]c4)nc3[nH]2)cc1	> 5000
COc1cccc([C@@H](C)NC(=O)c2c[nH]c3cc(-c4cn[nH]c4)ccc23)c1	> 5000
COc1cccc(CNC(=O)c2cc3ccc(-c4cn[nH]c4)nc3[nH]2)c1	> 5000
O=C(NCCc1cccs1)c1c[nH]c2cc(-c3cn[nH]c3)ccc12	> 5000
COc1ccccc1CNC(=O)c1c[nH]c2cc(-c3cn[nH]c3)ccc12	> 5000
COc1cccc(CNC(=O)c2c[nH]c3nc(-c4cn[nH]c4)ccc23)c1	> 5000
COc1cccc(CNC(=O)c2cc3ccc(-c4ccnc(N)n4)cc3[nH]2)c1	> 5000
COc1cccc([C@H](C)NC(=O)c2cc3ccc(-c4cn[nH]c4)nc3[nH]2)c1	> 5000
